Assay results reported in PubChem BioAssay (NCI).
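Step 1: Grow cells in 96-well plates. Step 2: Expose to compound for 48 hours at 5 concentrations. Step 3: Interpolate endpoints linearly; if unreached, use highest concentration. Definition used: TGI = concentration required for complete inhibition of growth.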

Legend:
Test in all cases: DTP human tumour cell line panel, 48 h
786-0 renal = tested on: 786-0 renal
A498 renal = tested on: A498 renal
A549 NSCLC = tested on: A549 NSCLC
ACHN renal = tested on: ACHN renal
CAKI-1 renal = tested on: CAKI-1 renal
CCRF-CEM leukemia = tested on: CCRF-CEM leukemia
COLO 205 colon = tested on: COLO 205 colon
DLD-1 colon = tested on: DLD-1 colon
DMS 114 small cell lung = tested on: DMS 114 small cell lung
DMS 273 small cell lung = tested on: DMS 273 small cell lung
EKVX NSCLC = tested on: EKVX NSCLC
HCT-116 colon = tested on: HCT-116 colon
HCT-15 colon = tested on: HCT-15 colon
HL-60(TB) leukemia = tested on: HL-60(TB) leukemia
HOP-18 NSCLC = tested on: HOP-18 NSCLC
HOP-62 NSCLC = tested on: HOP-62 NSCLC
HOP-92 NSCLC = tested on: HOP-92 NSCLC
HT29 colon = tested on: HT29 colon
IGROV1 ovarian = tested on: IGROV1 ovarian
K-562 leukemia = tested on: K-562 leukemia
KM12 colon = tested on: KM12 colon
KM20L2 colon = tested on: KM20L2 colon
LOX IMVI melanoma = tested on: LOX IMVI melanoma
LXFL 529 NSCLC = tested on: LXFL 529 NSCLC
M14 melanoma = tested on: M14 melanoma
M19-MEL melanoma = tested on: M19-MEL melanoma
MALME-3M melanoma = tested on: MALME-3M melanoma
NCI-H226 lung = tested on: NCI-H226 lung
NCI-H460 lung = tested on: NCI-H460 lung
NCI-H522 lung = tested on: NCI-H522 lung
OVCAR-3 ovarian = tested on: OVCAR-3 ovarian
OVCAR-4 ovarian = tested on: OVCAR-4 ovarian
OVCAR-5 ovarian = tested on: OVCAR-5 ovarian
OVCAR-8 ovarian = tested on: OVCAR-8 ovarian
RPMI-8226 leukemia = tested on: RPMI-8226 leukemia
RXF 393 renal = tested on: RXF 393 renal
SF-268 CNS = tested on: SF-268 CNS
SF-295 CNS = tested on: SF-295 CNS
SF-539 CNS = tested on: SF-539 CNS
SK-MEL-2 melanoma = tested on: SK-MEL-2 melanoma
SK-MEL-28 melanoma = tested on: SK-MEL-28 melanoma
SK-MEL-5 melanoma = tested on: SK-MEL-5 melanoma
SK-OV-3 ovarian = tested on: SK-OV-3 ovarian
SN12C renal = tested on: SN12C renal
SNB-75 CNS = tested on: SNB-75 CNS
SNB-78 CNS = tested on: SNB-78 CNS
SW-620 colon = tested on: SW-620 colon
TK-10 renal = tested on: TK-10 renal
U251 CNS = tested on: U251 CNS
UACC-257 melanoma = tested on: UACC-257 melanoma
UACC-62 melanoma = tested on: UACC-62 melanoma
UO-31 renal = tested on: UO-31 renal
XF 498 CNS = tested on: XF 498 CNS

Nc1nc(NCCO)c(N=O)c(=O)[nH]1
TGI (786-0 renal): > 100 µM
TGI (A498 renal): > 100 µM
TGI (A549 NSCLC): > 100 µM
TGI (ACHN renal): > 100 µM
TGI (CAKI-1 renal): > 100 µM
TGI (CCRF-CEM leukemia): > 100 µM
TGI (COLO 205 colon): > 100 µM
TGI (DLD-1 colon): > 100 µM
TGI (DMS 114 small cell lung): > 100 µM
TGI (DMS 273 small cell lung): > 100 µM
TGI (EKVX NSCLC): > 100 µM
TGI (HCT-116 colon): > 100 µM
TGI (HCT-15 colon): > 100 µM
TGI (HL-60(TB) leukemia): > 100 µM
TGI (HOP-18 NSCLC): > 100 µM
TGI (HOP-62 NSCLC): > 100 µM
TGI (HOP-92 NSCLC): > 100 µM
TGI (HT29 colon): > 100 µM
TGI (IGROV1 ovarian): > 100 µM
TGI (K-562 leukemia): > 100 µM
TGI (KM12 colon): > 100 µM
TGI (KM20L2 colon): > 100 µM
TGI (LOX IMVI melanoma): > 100 µM
TGI (LXFL 529 NSCLC): > 100 µM
TGI (M14 melanoma): > 100 µM
TGI (M19-MEL melanoma): > 100 µM
TGI (MALME-3M melanoma): > 100 µM
TGI (NCI-H226 lung): > 100 µM
TGI (NCI-H460 lung): > 100 µM
TGI (NCI-H522 lung): > 100 µM
TGI (OVCAR-3 ovarian): > 100 µM
TGI (OVCAR-4 ovarian): > 100 µM
TGI (OVCAR-5 ovarian): > 100 µM
TGI (OVCAR-8 ovarian): > 100 µM
TGI (RPMI-8226 leukemia): > 100 µM
TGI (RXF 393 renal): > 100 µM
TGI (SF-268 CNS): > 100 µM
TGI (SF-295 CNS): > 100 µM
TGI (SF-539 CNS): > 100 µM
TGI (SK-MEL-2 melanoma): > 100 µM
TGI (SK-MEL-28 melanoma): > 100 µM
TGI (SK-MEL-5 melanoma): > 100 µM
TGI (SK-OV-3 ovarian): > 100 µM
TGI (SN12C renal): > 100 µM
TGI (SNB-75 CNS): > 100 µM
TGI (SNB-78 CNS): > 100 µM
TGI (SW-620 colon): > 100 µM
TGI (TK-10 renal): > 100 µM
TGI (U251 CNS): > 100 µM
TGI (UACC-257 melanoma): > 100 µM
TGI (UACC-62 melanoma): > 100 µM
TGI (UO-31 renal): > 100 µM
TGI (XF 498 CNS): > 100 µM

COc1ccc2nc3cc(Cl)ccc3c(NCCC[N+](C)(C)CCCCCCCCCCCCCCCC[N+](C)(C)CCCNc3c4ccc(Cl)cc4nc4ccc(OC)cc34)c2c1
TGI (786-0 renal): > 100 µM
TGI (A498 renal): > 100 µM
TGI (A549 NSCLC): > 100 µM
TGI (ACHN renal): > 100 µM
TGI (CAKI-1 renal): > 100 µM
TGI (DLD-1 colon): > 100 µM
TGI (EKVX NSCLC): 9.97 µM
TGI (HCT-15 colon): > 100 µM
TGI (HOP-18 NSCLC): 14 µM
TGI (KM20L2 colon): > 100 µM
TGI (LXFL 529 NSCLC): 3.25 µM
TGI (NCI-H226 lung): > 100 µM
TGI (NCI-H522 lung): 8 µM
TGI (OVCAR-3 ovarian): > 100 µM
TGI (OVCAR-5 ovarian): 14.2 µM
TGI (OVCAR-8 ovarian): > 100 µM
TGI (RXF 393 renal): > 100 µM
TGI (SF-295 CNS): > 100 µM
TGI (SN12C renal): > 100 µM
TGI (TK-10 renal): 25.3 µM
